Experimental data published in patent US9265773B2, “Tetracyclic heterocycle compounds and methods of use thereof for the treatment of viral diseases” (priority 2011, dated 2016).

Assays:
HCV replicon genotype 1a = test: microbe, parasite or virus in culture; format: cell-based; details: genotype 1a replicon cells, incubated 96 hours, NS3/4A ELISA readout
HCV replicon genotype 1b = test: microbe, parasite or virus in culture; format: cell-based; details: genotype 1b replicon cells, incubated 96 hours, NS3/4A ELISA readout

With CNC(=O)c1c(-c2ccc(F)cc2)oc2cc(N(C)S(C)(=O)=O)c(-c3ccc4c(n3)-c3cc5c(F)cccc5n3C(CO)O4)cc12 (stereo not shown) [Compound 88, 5-(11-fluoro-6-(hydroxymethyl)-6H-pyrido[2′,3′:5,6][1,3]oxazino[3,4-a]indol-2-yl)-2-(4-fluorophenyl)-N-methyl-6-(N-methylmethylsulfonamido)benzofuran-3-carboxamide] the IC50 (HCV replicon genotype 1a) was 2.7 nM and the IC50 (HCV replicon genotype 1b) was 2.6 nM.

With CNC(=O)c1c(-c2ccc(F)cc2)oc2cc(N(C)S(C)(=O)=O)c(-c3ccc4c(c3)-c3nc5ccccn5c3CCO4)cc12 [Compound 145, 5-(6,7-dihydrobenzo[2′,3′]oxepino[4′,5′:4,5]imidazo[1,2-a]pyridin-2-yl)-2-(4-fluorophenyl)-N-methyl-6-(N-methylmethylsulfonamido)benzofuran-3-carboxamide] the IC50 (HCV replicon genotype 1a; Hepatitis C virus, 96 h) was 5.3 nM and the IC50 (HCV replicon genotype 1b; Hepatitis C virus, 96 h) was 2.7 nM.

With CCOC(=O)N(C)C(=O)c1c(-c2ccc(F)cc2)oc2cc(N(C)S(C)(=O)=O)c(-c3ccc4c(n3)-c3cc5c(F)cccc5n3CO4)cc12 [Compound 208, Ethyl (5-(11-fluoro-6H-pyrido[2′,3′:5,6][1,3]oxazino[3,4-a]indol-2-yl)-2-(4-fluorophenyl)-6-(N-methylmethylsulfonamido)benzofuran-3-carbonyl)(methyl)carbamate] the IC50 (HCV replicon genotype 1a; Hepatitis C virus, 96 h) was 42 nM and the IC50 (HCV replicon genotype 1b; Hepatitis C virus, 96 h) was 122 nM.

For CNC(=O)c1c(-c2ccc(F)cc2)oc2cc(N(C)S(C)(=O)=O)c(-c3ccc4c(n3)-c3cc5c(F)cccc5n3C(CNC(C)=O)O4)cc12 (stereo not shown) [Compound 130], the IC50 (HCV replicon genotype 1a) was 3 nM and the IC50 (HCV replicon genotype 1b) was 3 nM.

CNC(=O)c1c(-c2ccc(F)cc2)oc2cc(N(CCCF)S(C)(=O)=O)c(-c3ccc4c(n3)-c3cc5c(F)cccc5n3CO4)cc12 [Compound 192] showed an IC50 (HCV replicon genotype 1a; Hepatitis C virus, 96 h) of 4.6 nM and an IC50 (HCV replicon genotype 1b; Hepatitis C virus, 96 h) of 7.1 nM.

COC(=O)c1c(-c2ccc(F)cc2)oc2cc(N(C)S(C)(=O)=O)c(-c3ccc4c(n3)-c3cc5c(F)cccc5n3CO4)cc12 [Compound 150, methyl 5-(11-fluoro-6H-pyrido[2′,3′:5,6][1,3]oxazino[3,4-a]indol-2-yl)-2-(4-fluorophenyl)-6-(N-methylmethylsulfonamido)benzofuran-3-carboxylate] gave an IC50 (HCV replicon genotype 1a; Hepatitis C virus, 96 h) of 38 nM and an IC50 (HCV replicon genotype 1b; Hepatitis C virus, 96 h) of 30 nM.

In the case of CCNC(=O)C1Oc2ccc(-c3cc4c(C(=O)NC)c(-c5ccc(F)cc5)oc4cc3N(C)S(C)(=O)=O)nc2-c2cc3c(F)cccc3n21 (stereo not shown) [Compound 107], the IC50 (HCV replicon genotype 1a) is reported as 1.5 nM and the IC50 (HCV replicon genotype 1b) is reported as 0.7 nM.

Compound CNC(=O)c1c(-c2ccc(F)cc2)oc2cc(N(C)S(C)(=O)=O)c(-c3ccc4c(n3)-c3cc5cccc(Cl)c5n3CO4)cc12 [Compound 21] has an IC50 (HCV replicon genotype 1a; Hepatitis C virus, 96 h) of 14 nM and an IC50 (HCV replicon genotype 1b; Hepatitis C virus, 96 h) of 13 nM.

For CNC(=O)c1c(-c2ccc(F)cc2)oc2cc(N(C)S(C)(=O)=O)c(-c3ccc4c(n3)-c3cc5c(F)cccc5n3C(CNC(C)C(=O)O)O4)cc12 (stereo not shown) [Compound 117], the IC50 (HCV replicon genotype 1a; Hepatitis C virus, 96 h) was 74 nM and the IC50 (HCV replicon genotype 1b; Hepatitis C virus, 96 h) was 7.5 nM.

CNC(=O)c1c(-c2ccc(F)cc2)oc2cc(N3CCCC3=O)c(-c3ccc4c(n3)-c3cc5cc(F)ccc5n3CO4)cc12 [Compound 169] showed an IC50 (HCV replicon genotype 1a; Hepatitis C virus, 96 h) of 14 nM and an IC50 (HCV replicon genotype 1b; Hepatitis C virus, 96 h) of 5 nM.

Work on CNC(=O)c1c(-c2ccc(F)cc2)oc2cc(N(C)S(C)(=O)=O)c(-c3ccc4c(n3)-c3cc5c(F)cccc5n3C(C(C)(C)O)O4)cc12 (stereo not shown) [Compound 101, 5-(11-fluoro-6-(2-hydroxypropan-2-yl)-6H-pyrido[2′,3′,5,6][1,3]oxazino[3,4-a]indol-2-yl)-2-(4-fluorophenyl)-N-methyl-6-(N-methylmethylsulfonamido)benzofuran-3-carboxamide] yielded an IC50 (HCV replicon genotype 1a; Hepatitis C virus, 96 h) of 5.8 nM and an IC50 (HCV replicon genotype 1b; Hepatitis C virus, 96 h) of 8.7 nM.
